Laboratory results taken from PubChem BioAssay (NCI).
“And” between values parts separate entries of the source, which are not always exact repeats. Equal entries are not always repeated.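 Assay format: 96-well plates, 48-hour exposure. Abbreviation: GI50, concentration required for 50% inhibition of growth. TGI is the concentration that stops growth completely.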

Tests used:
Test in all cases: NCI anticancer screen, dose series, 48 h
[1] = test system: UO-31 renal
[2] = test system: RPMI-8226 leukemia
[3] = test system: TK-10 renal
[4] = test system: SF-268 CNS
[5] = test system: NCI-H522 lung
[6] = test system: SK-OV-3 ovarian
[7] = test system: A498 renal
[8] = test system: SF-539 CNS
[9] = test system: T-47D breast
[10] = test system: OVCAR-5 ovarian

Structure (SMILES): c1ccc(CSC2(SCc3ccccc3)CCCCC2)cc1
- TGI [1]: > 10 µM
- TGI [2]: > 10 µM
- TGI [3]: > 10 µM
- TGI [4]: > 10 µM
- TGI [5]: > 10 µM
- TGI [6]: > 10 µM
- TGI [7]: > 10 µM
- TGI [8]: > 10 µM
- TGI [9]: > 10 µM

Structure (SMILES): COc1ccc(NC(=S)c2ccoc2C)cc1CC(=O)OC(C)C
- TGI [1]: > 100 µM
- TGI [2]: > 100 µM
- TGI [3]: > 100 µM
- TGI [4]: > 100 µM
- TGI [10]: > 100 µM
- TGI [5]: > 100 µM
- TGI [6]: > 100 µM
- TGI [8]: > 100 µM
- TGI [9]: > 100 µM

Structure (SMILES): COc1cc(C2c3cc4c(cc3[C@@H](NCCN3CCOCC3)C3COC(=O)[C@H]23)OCO4)cc(OC)c1O (some centres not stated)
- TGI [1]: 5.13 µM and 6.38 µM
- GI50 [2]: 0.855 µM and 1.81 µM
- TGI [2]: 6.58 µM and 9.59 µM
- TGI [3]: 21.7 µM and > 17.5 µM
- TGI [4]: 10.2 µM
- TGI [5]: 13.1 µM and 9.66 µM
- GI50 [6]: 1.49 µM and 3.36 µM
- TGI [6]: 5.89 µM and 11.3 µM
- TGI [8]: 2.53 µM and 3.58 µM

Structure (SMILES): COc1ccc(/C=C2\C[C@H]3[C@@H]4CCC5=CC(=O)CC[C@]5(C)[C@H]4CC[C@]3(C)C2=O)cc1OC
- TGI [1]: 6.85 µM
- TGI [2]: 47.3 µM
- TGI [4]: > 100 µM
- TGI [10]: > 100 µM
- TGI [5]: 9.87 µM
- TGI [6]: > 100 µM
- TGI [7]: > 100 µM
- TGI [8]: > 100 µM
- TGI [9]: > 100 µM

Structure (SMILES): Cn1cc(-c2csc(-c3cn(C)c4ccccc34)n2)c2ccccc21
- TGI [1]: > 100 µM
- TGI [2]: 85 µM
- TGI [3]: > 100 µM
- TGI [4]: > 100 µM
- TGI [10]: > 100 µM
- TGI [5]: > 100 µM
- TGI [7]: 48.1 µM
- TGI [9]: 89.6 µM

Structure (SMILES): Nc1nc(-c2ccco2)cc(-c2ccc(CO)o2)n1
- TGI [1]: > 100 µM
- TGI [2]: > 100 µM
- TGI [3]: > 100 µM
- TGI [4]: > 100 µM
- TGI [10]: > 100 µM
- TGI [5]: > 100 µM
- TGI [8]: > 100 µM

Structure (SMILES): COc1ccc(-c2oc3c(OC)c(OC)cc(O)c3c(=O)c2OC)cc1
- TGI [1]: > 100 µM
- TGI [3]: > 100 µM
- TGI [4]: > 100 µM
- TGI [10]: > 100 µM
- TGI [5]: > 100 µM
- TGI [6]: > 100 µM
- TGI [7]: > 100 µM
- TGI [8]: 72.5 µM
- TGI [9]: > 100 µM

Structure (SMILES): CC(Cl)CC(=O)OCC1CCCN2CCCCC12 (configuration not stated)
- TGI [1]: > 100 µM
- TGI [2]: > 100 µM
- TGI [3]: > 100 µM
- TGI [4]: > 100 µM
- TGI [10]: > 100 µM
- TGI [6]: > 100 µM
- TGI [7]: > 100 µM
- TGI [8]: > 100 µM
- TGI [9]: > 100 µM

Structure (SMILES): CC(C)NC(=O)OCc1c2c(n(C)c1COC(=O)NC(C)C)-c1ccccc1CC2
- TGI [1]: 32.4 µM
- TGI [2]: 17.3 µM
- TGI [4]: 28.8 µM
- TGI [10]: 31.6 µM
- TGI [5]: 18.1 µM
- TGI [6]: 42.6 µM
- TGI [7]: 61.7 µM
- TGI [8]: 34.3 µM

Structure (SMILES): O=C1c2ccccc2N2Oc3ccccc3C12c1ccccc1 (configuration not stated)
- TGI [1]: > 100 µM
- TGI [2]: > 100 µM
- TGI [4]: > 100 µM
- TGI [5]: > 100 µM
- TGI [6]: > 100 µM
- TGI [7]: > 100 µM
- TGI [8]: > 100 µM

Structure (SMILES): C#CC1(O)CCCCCCCCC2(CCCCCCCC1)OCCO2
- TGI [2]: 22 µM
- TGI [3]: 37 µM
- TGI [4]: 34.2 µM
- TGI [10]: 37.8 µM
- TGI [5]: 6.42 µM
- TGI [6]: 33.2 µM
- TGI [7]: 27.8 µM
- TGI [8]: 31.8 µM
- TGI [9]: 33.8 µM

Structure (SMILES): CCOC1CC(C)N(C(=O)c2ccccc2)O1 (configuration not stated)
- TGI [1]: > 100 µM
- TGI [3]: > 100 µM
- TGI [4]: > 100 µM
- TGI [10]: > 100 µM
- TGI [6]: > 100 µM
- TGI [7]: > 100 µM
- TGI [8]: > 100 µM
- TGI [9]: > 100 µM

Structure (SMILES): COc1ccc(-c2c(C#N)c(S)n(NS(=O)(=O)c3ccccc3)c(=O)c2C#N)cc1
- TGI [1]: > 100 µM
- TGI [2]: 98.4 µM
- TGI [3]: > 100 µM
- TGI [4]: > 100 µM
- TGI [10]: > 100 µM
- TGI [5]: 73 µM
- TGI [6]: > 100 µM
- TGI [8]: 61.6 µM
- TGI [9]: > 100 µM

Structure (SMILES): COc1cc(OC)c2[nH]c3c(O)c(-c4c(C)cc5c([nH]c6c(OC)cc(OC)cc65)c4O)c(C)cc3c2c1
- GI50 [1]: 6.83 µM
- TGI [1]: 13.3 µM
- GI50 [2]: 10.5 µM
- TGI [2]: 23.7 µM
- TGI [3]: 17.9 µM
- TGI [4]: 15.9 µM
- GI50 [10]: 9.03 µM
- TGI [10]: 16.2 µM
- TGI [5]: 16.6 µM
- GI50 [7]: 7.82 µM
- TGI [7]: 14.8 µM
- TGI [8]: 16.8 µM
- TGI [9]: 17.7 µM

Structure (SMILES): CCOC(=O)/C=C(/C)Nc1nc2c(c(C(=O)OC)c1C#N)CCCC2
- TGI [1]: > 100 µM
- TGI [2]: > 100 µM
- TGI [3]: > 100 µM
- TGI [4]: > 100 µM
- TGI [10]: > 100 µM
- TGI [5]: > 100 µM
- TGI [6]: > 100 µM
- TGI [7]: > 100 µM
- TGI [9]: > 100 µM

Structure (SMILES): c1ccc2c(c1)OC(N1CCCC1)c1cnc(N3CCOCC3)nc1-2 (configuration not stated)
- TGI [1]: 47.2 µM
- TGI [2]: 74.7 µM
- TGI [3]: > 100 µM
- TGI [4]: > 100 µM
- TGI [10]: 79.1 µM
- TGI [6]: > 100 µM
- TGI [7]: 39.7 µM
- TGI [8]: > 100 µM
- TGI [9]: 45.2 µM

Structure (SMILES): CC(=O)OC(C)(C)CCC(=O)[C@](C)(O)[C@H]1[C@H](O)C[C@@]2(C)[C@@H]3CCc4c(cc(OC5OC(CO)C(O)C(O)C5O)c(O)c4C)C3(C)C(=O)C[C@]12C (some centres not stated)
- TGI [1]: > 100 µM
- TGI [3]: > 100 µM
- TGI [4]: > 100 µM
- TGI [10]: > 100 µM
- TGI [5]: > 100 µM
- TGI [6]: > 100 µM
- TGI [7]: > 100 µM
- TGI [8]: > 100 µM
- TGI [9]: > 100 µM

Structure (SMILES): COc1ccccc1C1c2cc3c(cc2OC(N2CCOCC2)C1C)OCO3 (configuration not stated)
- TGI [1]: 42.8 µM
- TGI [2]: 45.7 µM
- TGI [3]: > 100 µM
- TGI [4]: 40.9 µM
- TGI [10]: 41.1 µM
- TGI [5]: 30.1 µM
- TGI [8]: 32 µM
- TGI [9]: 78.3 µM

Structure (SMILES): C=C1C[C@H](O)[C@H](Br)C(C)(C)C12CCC(C)(Cl)C(Br)C2 (some centres not stated)
- TGI [1]: 17 µM
- TGI [2]: 3.76 µM
- TGI [3]: 13.1 µM
- TGI [4]: 20.8 µM
- TGI [10]: 4.25 µM
- TGI [5]: 15 µM
- TGI [6]: 12.7 µM
- TGI [8]: 42.2 µM
- TGI [9]: 13.5 µM

Structure (SMILES): CC1(C)N=C(C2CCCN2C(=O)OCc2ccccc2)OC1=O (configuration not stated)
- TGI [1]: > 100 µM
- TGI [2]: > 100 µM
- TGI [3]: > 100 µM
- TGI [4]: > 100 µM
- TGI [10]: > 100 µM
- TGI [5]: > 100 µM
- TGI [6]: > 100 µM
- TGI [7]: > 100 µM
- TGI [8]: > 100 µM

Structure (SMILES): CC1=C(C)SC(=C2Sc3nc(O)[nH]c(=O)c3S2)S1
- TGI [1]: > 100 µM
- TGI [2]: > 100 µM
- TGI [3]: > 100 µM
- TGI [4]: > 100 µM
- TGI [10]: > 100 µM
- TGI [5]: > 100 µM
- TGI [6]: > 100 µM
- TGI [7]: > 100 µM
- TGI [8]: > 100 µM

Structure (SMILES): CCOc1ccc(N/C(=C(/C(Cl)=C(/Cl)NC(C)(C)C)[N+](=O)[O-])n2nnc3ccccc32)cc1
- TGI [1]: > 100 µM
- TGI [2]: > 100 µM
- TGI [4]: 42.7 µM
- TGI [10]: > 100 µM
- TGI [6]: > 100 µM
- TGI [7]: > 100 µM
- TGI [8]: 57.6 µM
- TGI [9]: 32 µM

Structure (SMILES): ON=C(CC(O)(C(F)(F)Cl)C(F)(F)Cl)CC(O)(C(F)(F)Cl)C(F)(F)Cl
- TGI [1]: > 10 µM
- TGI [2]: > 10 µM
- TGI [3]: > 10 µM
- TGI [4]: > 10 µM
- TGI [5]: > 10 µM
- TGI [6]: > 10 µM
- TGI [7]: > 10 µM
- TGI [8]: > 10 µM
- TGI [9]: > 10 µM
